Results taken from patent US10030020B2, “Spirocycle compounds and methods of making and using same” (Abide Therapeutics, Inc., priority 2016, dated 2018).
Read-outs that look alike come from different tables or passages of the source.

Tests used:
Type in all cases: biochemical
[1] = molecular target: FAAH (Mus musculus (Mouse), UniProt O08914); experiment: In vitro competitive activity-based protein profiling (mouse brain membrane fraction or cell lysates), FAAH band; conditions: for inhibition at 1 µM: read-out: FAAH % Inh 1 μM (mouse); for IC50: competitive ABPP
Sequence of FAAH (O08914 whole entry): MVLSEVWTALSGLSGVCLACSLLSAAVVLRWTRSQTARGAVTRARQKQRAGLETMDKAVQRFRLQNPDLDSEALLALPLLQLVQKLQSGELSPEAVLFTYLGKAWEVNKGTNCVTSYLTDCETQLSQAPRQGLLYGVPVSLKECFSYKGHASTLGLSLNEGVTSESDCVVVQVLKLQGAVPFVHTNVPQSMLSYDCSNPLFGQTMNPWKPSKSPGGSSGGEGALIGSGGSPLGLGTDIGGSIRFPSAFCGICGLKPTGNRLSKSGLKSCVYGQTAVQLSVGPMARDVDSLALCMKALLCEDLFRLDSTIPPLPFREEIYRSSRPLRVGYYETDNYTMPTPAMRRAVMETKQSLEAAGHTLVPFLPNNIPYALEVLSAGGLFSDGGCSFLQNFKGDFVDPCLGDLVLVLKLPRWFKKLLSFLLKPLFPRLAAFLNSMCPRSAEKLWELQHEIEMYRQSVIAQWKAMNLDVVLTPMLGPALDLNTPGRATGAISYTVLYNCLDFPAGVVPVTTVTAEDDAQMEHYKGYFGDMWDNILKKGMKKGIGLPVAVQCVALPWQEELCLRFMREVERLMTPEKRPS
Protocol: (§1) In Vitro Competitive Activity-Based Protein Profiling.
(§2) Proteomes (mouse brain membrane fraction or cell lysates) (50 μL, 1.0 mg/mL total protein concentration) were preincubated with varying concentrations of inhibitors at 37° C. After 30 min, FP—Rh (1.0 μL, 50 μM in DMSO) was added and the mixture was incubated for another 30 min at 37° C. Reactions were quenched with SDS loading buffer (50 μL-4×) and run on SDS-PAGE. Following gel imaging, serine hydrolase activity was determined by measuring fluorescent intensity of gel bands corresponding to MAGL, ABHD6 and FAAH using ImageJ 1.43u software.

[2] = molecular target: ABHD6 (Mus musculus (Mouse), UniProt Q8R2Y0); experiment: In vitro competitive activity-based protein profiling (mouse brain membrane fraction or cell lysates), ABHD6 band; conditions: for inhibition at 1 µM: read-out: ABHD6 % Inh 1 μM (mouse); for IC50: competitive ABPP
Sequence of ABHD6 (Q8R2Y0 whole entry): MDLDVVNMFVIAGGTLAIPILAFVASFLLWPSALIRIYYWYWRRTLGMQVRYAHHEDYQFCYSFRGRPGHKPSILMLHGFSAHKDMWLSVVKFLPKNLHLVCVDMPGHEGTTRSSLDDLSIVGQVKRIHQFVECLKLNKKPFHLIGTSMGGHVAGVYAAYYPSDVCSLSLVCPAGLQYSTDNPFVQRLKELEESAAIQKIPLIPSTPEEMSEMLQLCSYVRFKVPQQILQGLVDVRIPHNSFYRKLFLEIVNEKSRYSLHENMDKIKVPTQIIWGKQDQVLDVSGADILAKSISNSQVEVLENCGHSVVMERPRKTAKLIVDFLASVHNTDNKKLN
Protocol: as §1, §2

[3] = molecular target: MAGL (Mus musculus (Mouse), UniProt O35678); experiment: In vitro competitive activity-based protein profiling (mouse brain membrane fraction or cell lysates), MAGL band; conditions: for inhibition at 1 µM: read-out: MAGL % Inh 1 μM (mouse); for IC50: competitive ABPP
Sequence of MAGL (O35678 whole entry): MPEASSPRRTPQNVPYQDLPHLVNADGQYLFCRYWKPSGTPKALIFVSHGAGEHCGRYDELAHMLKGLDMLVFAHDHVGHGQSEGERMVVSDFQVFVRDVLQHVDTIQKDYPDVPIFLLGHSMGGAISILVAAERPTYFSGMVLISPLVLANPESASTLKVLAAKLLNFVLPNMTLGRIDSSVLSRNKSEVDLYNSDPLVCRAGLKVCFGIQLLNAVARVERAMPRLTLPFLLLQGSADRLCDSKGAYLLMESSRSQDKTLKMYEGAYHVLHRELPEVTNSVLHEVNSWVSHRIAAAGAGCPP
Protocol: as §1
Proteomes (mouse brain membrane fraction or cell lysates) (50 μL, 1.0 mg/mL total protein concentration) were preincubated with varying concentrations of inhibitors at 37° C. After 30 min, FP—Rh (1.0 μL, 50 μM in DMSO) was added and the mixture was incubated for another 30 min at 37° C. Reactions were quenched with SDS loading buffer (50 μL-4×) and run on SDS-PAGE.

Row | Structure (SMILES) | inhibition at 1 µM ([1]; mouse proteome) | IC50 ([1]; mouse proteome) | inhibition at 1 µM ([2]; mouse proteome) | IC50 ([2]; mouse proteome) | inhibition at 1 µM ([3]; mouse proteome) | IC50 ([3]; mouse proteome) | inhibition at 1 µM ([1]; mouse) | inhibition at 1 µM ([2]; mouse) | inhibition at 1 µM ([3]; mouse)
1 | O=C(OC(C(F)(F)F)C(F)(F)F)N1CCC2(CCCN2Cc2ccc(Cl)cc2N2CCCCCC2)CC1 [Example 106, 1,1,1,3,3,3-Hexafluoropropan-2-yl 1-(2-(azepan-1-yl)-4-chlorobenzyl)-1,8-diazaspiro[4.5]decane-8-carboxylate] | < 25% | > 1000 nM | < 25% | > 1000 nM | > 75% | 100 to 1000 nM |  |  | 
2 | CC(C)N1CCc2cccc(CN3CCCC34CCN(C(=O)OC(C(F)(F)F)C(F)(F)F)CC4)c2C1 [Example 147, 1,1,1,3,3,3-Hexafluoropropan-2-yl 1-((2-isopropyl-1,2,3,4-tetrahydroisoquinolin-8-yl)methyl)-1,8-diazaspiro[4.5]decane-8-carboxylate] | < 25% | > 1000 nM | < 25% | > 1000 nM | > 75% | 100 to 1000 nM |  |  | 
3 | O=C(OC(C(F)(F)F)C(F)(F)F)N1CCC2(CCCN2Cc2cccc(N3CC4COCC4C3)c2Cl)CC1 (centres unmarked) [Example 112, 1,1,1,3,3,3-Hexafluoropropan-2-yl 1-(2-chloro-3-(tetrahydro-1H-furo[3,4-c]pyrrol-5(3H)-yl)benzyl)-1,8-diazaspiro[4.5]decane-8-carboxylate] | < 25% | > 1000 nM | < 25% | > 1000 nM | > 75% | < 100 nM |  |  | 
4 | O=C(OC(C(F)(F)F)C(F)(F)F)N1CCC2(CCCN2Cc2cccc(OCCN3CCCCC3)c2)CC1 [Example 11, 1,1,1,3,3,3-Hexafluoropropan-2-yl 1-(3-(2-(piperidin-1-yl)ethoxy)benzyl)-1,8-diazaspiro[4.5]decane-8-carboxylate] | < 25% | > 1000 nM | < 25% | > 1000 nM | > 75% | 100 to 1000 nM |  |  | 
5 | O=C(OC(C(F)(F)F)C(F)(F)F)N1CCC2(CCCN2Cc2cccc(N3CCC(F)CC3)c2Cl)CC1 [Example 110, 1,1,1,3,3,3-Hexafluoropropan-2-yl 1-(2-chloro-3-(4-fluoropiperidin-1-yl)benzyl)-1,8-diazaspiro[4.5]decane-8-carboxylate] | < 25% | > 1000 nM | < 25% | > 1000 nM | > 75% | < 100 nM |  |  | 
6 | CC(=O)N1CCCc2cccc(CN3CCCC34CCN(C(=O)OC(C(F)(F)F)C(F)(F)F)CC4)c21 [Example 142, 1,1,1,3,3,3-Hexafluoropropan-2-yl 1-((1-acetyl-1,2,3,4-tetrahydroquinolin-8-yl)methyl)-1,8-diazaspiro[4.5]decane-8-carboxylate] | < 25% | > 1000 nM | < 25% | > 1000 nM | > 75% | 100 to 1000 nM |  |  | 
7 | O=C(OC(C(F)(F)F)C(F)(F)F)N1CCC2(CCCN2Cc2cccc(OCCN3CCOCC3)c2)CC1 [Example 13, 1,1,1,3,3,3-Hexafluoropropan-2-yl 1-(3-(2-morpholinoethoxy)benzyl)-1,8-diazaspiro[4.5]decane-8-carboxylate] | < 25% | > 1000 nM | < 25% | > 1000 nM | > 75% | 100 to 1000 nM |  |  | 
8 | O=C(OC(C(F)(F)F)C(F)(F)F)N1CCC2(CCCN2Cc2cc(Cl)cc(N3CC4COCC4C3)c2)CC1 (centres unmarked) [Example 38, 1,1,1,3,3,3-Hexafluoropropan-2-yl 1-(3-chloro-5-(tetrahydro-1H-furo[3,4-c]pyrrol-5(3H)-yl)benzyl)-1,8-diazaspiro[4.5]decane-8-carboxylate] | 25 to 75% | > 1000 nM | < 25% | > 1000 nM | > 75% | < 100 nM |  |  | 
9 | O=C(OC(C(F)(F)F)C(F)(F)F)N1CCC2(CCCN2Cc2cccc(N3CCC4(CCOCC4)C3)c2Cl)CC1 [Example 117, 1,1,1,3,3,3-Hexafluoropropan-2-yl 1-(2-chloro-3-(8-oxa-2-azaspiro[4.5]decan-2-yl)benzyl)-1,8-diazaspiro[4.5]decane-8-carboxylate] | < 25% | > 1000 nM | < 25% | > 1000 nM | > 75% |  |  |  | 

More lines, now with the values ahead:

Row | inhibition at 1 µM ([1]; mouse proteome) | IC50 ([1]; mouse proteome) | inhibition at 1 µM ([2]; mouse proteome) | IC50 ([2]; mouse proteome) | inhibition at 1 µM ([3]; mouse proteome) | IC50 ([3]; mouse proteome) | inhibition at 1 µM ([1]; mouse) | inhibition at 1 µM ([2]; mouse) | inhibition at 1 µM ([3]; mouse) | Structure (SMILES)
10 | < 25% | > 1000 nM | ≥ 75% | 100 to 1000 nM | > 75% | < 100 nM |  |  |  | CC1(C)CC2(CCN(C(=O)OC(C(F)(F)F)C(F)(F)F)CC2)CN1Cc1cc(Cl)ccc1N1CCOCC1 [Example 187, 1,1,1,3,3,3-Hexafluoropropan-2-yl 2-(5-chloro-2-morpholinobenzyl)-3,3-dimethyl-2,8-diazaspiro[4.5]decane-8-carboxylate]
11 |  |  |  |  |  |  | < 25% | < 25% | 25 to 75% | COc1ccc(CN2CCCC23CCN(C(=O)OC(C(F)(F)F)C(F)(F)F)CC3)cc1C(=O)O [Example 254]
12 | < 25% | > 1000 nM | 25 to 75% | 100 to 1000 nM | > 75% | < 100 nM |  |  |  | O=C(OC(C(F)(F)F)C(F)(F)F)N1CCC2(CCN(Cc3cccc4c3CN(C3CC3)CC4)C2)CC1 [Example 163, 1,1,1,3,3,3-Hexafluoropropan-2-yl 2-((2-cyclopropyl-1,2,3,4-tetrahydroisoquinolin-8-yl)methyl)-2,8-diazaspiro[4.5]decane-8-carboxylate]
13 | < 25% |  | < 25% |  | > 75% |  |  |  |  | O=C(O)[C@@H]1CCCN(c2cc(CN3CCCC34CCN(C(=O)OC(C(F)(F)F)C(F)(F)F)CC4)cc(C(F)(F)F)c2)C1 [Example 212]
14 | < 25% | > 1000 nM | 25 to 75% | > 1000 nM | > 75% | < 100 nM |  |  |  | CN1CCC(Oc2cc(C(F)(F)F)ccc2CN2CCCC23CCN(C(=O)OC(C(F)(F)F)C(F)(F)F)CC3)CC1 [Example 165, 1,1,1,3,3,3-Hexafluoropropan-2-yl 1-(2-(1-methylpiperidin-4-yloxy)-4-(trifluoromethyl)benzyl)-1,8-diazaspiro[4.5]decane-8-carboxylate]
15 | < 25% | > 1000 nM | 25 to 75% | > 1000 nM | > 75% | < 100 nM |  |  |  | O=C(COc1cc(C(F)(F)F)ccc1CN1CCCC12CCN(C(=O)OC(C(F)(F)F)C(F)(F)F)CC2)N1CCCC1 [Example 167, 1,1,1,3,3,3-Hexafluoropropan-2-yl 1-(2-(2-oxo-2-(pyrrolidin-1-yl)ethoxy)-4-(trifluoromethyl)benzyl)-1,8-diazaspiro[4.5]decane-8-carboxylate]
16 |  |  |  |  |  |  | < 25% | < 25% | 25 to 75% | O=C(O)C1CCCCN1c1cc(C(F)(F)F)ccc1CN1CCC2(CCN(C(=O)OC(C(F)(F)F)C(F)(F)F)CC2)C1 (centres unmarked) [Example 224]
17 | < 25% | > 1000 nM | ≥ 75% | < 100 nM | > 75% | < 100 nM |  |  |  | CS(=O)(=O)N1CCc2cccc(CN3CCC4(CCN(C(=O)OC(C(F)(F)F)C(F)(F)F)CC4)C3)c2C1 [Example 161, 1,1,1,3,3,3-hexafluoropropan-2-yl 2-((2-(methylsulfonyl)-1,2,3,4-tetrahydroisoquinolin-8-yl)methyl)-2,8-diazaspiro[4.5]decane-8-carboxylate]
